# According to patent US12692232B2, “Indole carboxamide compound, preparation therefor and use thereof” (NANJING RUISHUNING MEDICAL TECHNOLOGY CO., LTD., priority 2021, dated 2026):
# pKd: −log10 of the molar value.
# What was measured:
# TRPC1 protein = TRPC1 protein (Homo sapiens, UniProt P48995); experiment: MST binding to TRPC1 protein; details: for pKd: MST; for affinity strength to TRPC6 protein higher than to TRPC1 protein: MST Kd ratio
# Method: (§1) Preparation and labelling of protein solution: TRPC6 protein dry powder (Alomone Labs, Israel) was prepared into a protein mother solution at a concentration of 10 μM using PBS-Buffer, and 35 μL of the protein stock solution was taken to the Buffer exchange A column, and centrifuged to obtain the Tris-removed protein. 34 μL Labelling Buffer was added to the Tris-removed protein according to the instructions of the Protein Fluorescent Labelling Kit (model L001). After mixing well, 3 μL of NT-647-NHS fluorescent dye was added and thus obtained mixture was incubated for 20 minutes. The protein-dye mixture was transferred to the purification B column, 300 μL of PBS-Buffer was added, and the target protein, i.e. fluorescent labelled protein TRPC6, was collected by centrifugation (with a final concentration of about 2 μM). 180 μL of target protein was mixed with 1620 μL of PBS-Buffer, and then 9 μl of Tween-20 were added thereto. Thus the resulting mixture was mixed and then centrifuged to obtain the target protein solution.
# (§2) Preparation of compound solutions: the compounds were prepared separately with DMSO to storage solutions with a concentration of […]. 10 μL of each storage solution was placed in a […] EP tube, 90 μL of PBS was added thereto and the resulting mixture was thoroughly mixed to prepare 100 μL of working solution at a concentration of 1 μM for later use. Ligand gradient dilutions were made for a total of 16 concentrations, and 10 μL of 10% DMSO-Buffer was added to each of the 15 gradients except gradient 1, followed by the addition of 10 μL of ligand working solution to gradients 1 and 2, respectively. The liquid in tube 2 was mixed and then 10 μL therein was taken into tube 3, and dilution was carried out in this manner until tube 16. Tube 16 was mixed and 10 μL therein was taken and discarded, and the remainder was kept for later use.
# (§3) Detection and analysis: 10 μL of protein solution was added to the 16 compound gradient dilutions respectively and mixed, and the resultant mixtures were transferred to capillary tubes sequentially to start detection on machine. After loading the data, the MST analysis model and Kd Model were selected to obtain the fitting curve and dissociation constant (Kd).
# (§4) The binding ability of the compounds of the present invention (as exemplified by the compounds 1-1 and 2-1 obtained in Examples 1 and 3) for other TRPC proteins (e.g., TRPC1, TRPC3, TRPC4, TRPC5, and TRPC7) was determined using the microscale thermophoresis (MST) method. The method was as follows:
# (§5) The affinity of the compounds of the present invention with TRPC1, TRPC3, TRPC4, TRPC5 and TRPC7 proteins, respectively, was determined by the same method as in Example 5.
# [1] = test system: lipopolysaccharide (LPS)-induced mouse model of sepsis; experiment: LPS-induced mouse model of sepsis, survival analysis; format: in vivo; details: for average survival time: LPS 40 mg/kg i.p., LPS group 15.4±2.9; for time after which the mice began to die: LPS 40 mg/kg i.p. 30 minutes later, LPS group about 12 hours
# Method: A lipopolysaccharide (LPS)-induced mouse model of sepsis was used to determine the preventive and therapeutic effect of the compounds of the present invention (as exemplified by compounds 1-1 and 2-1 obtained in Examples 1 and 3) against sepsis. The method was as follows:
# Experimental animals: 60 male C57BL/6J mice aged 6-8 weeks. The experimental animals were housed in an environment with room temperature of 25±2° C., 12 hours dark/12 hours light, and fed with conventional feed.
# Survival analysis experiment: the mice were randomly divided into 6 groups of 10 mice each, namely, i) a solvent control group: each animal was administered 0.9% saline; ii) a sepsis model group (LPS group): each animal was injected intraperitoneally with LPS at a dose of 40 mg/kg; iii) a treatment group of medium-dose compound 1-1 (LPS+25 mg/kg of compound 1-1 obtained in Example 1): each animal was administered compound 1-1 by gavage at a dose of 25 mg/kg, followed by intraperitoneal injection of LPS at a dose of 40 mg/kg 30 minutes later; iv) a treatment group of high-dose compound 1-1 (LPS+50 mg/kg of compound 1-1 obtained in Example 1): each animal was administered compound 1-1 by gavage at a dose of 50 mg/kg, followed by intraperitoneal injection of LPS at a dose of 40 mg/kg 30 minutes later; v) a treatment group of high-dose compound 2-1 (LPS+50 mg/kg compound 2-1 obtained in Example 2): each animal was administered compound 2-1 by gavage at a dose of 50 mg/kg, followed by intraperitoneal injection of LPS at a dose of 40 mg/kg 30 minutes later; vi) a treatment group of medium-dose indole analogue 3-[(1-methyl-1H-indole-2-carbonyl)amino]propionic acid disclosed in CN2019107285315 (LPS+25 mg/kg of indole analogue 3-[(1-methyl-1H-indole-2-carbonyl)amino]propionic acid disclosed in CN2019107285315). The survival of the mice in each group was monitored, the time of death of the mice was recorded, and the average survival time of the animals in each group was calculated.
# TRPC3 protein = target: T1, TRPC3 protein (Homo sapiens, UniProt Q13507); experiment: MST binding to TRPC3 protein; details: for affinity strength to TRPC6 protein higher than to TRPC3 protein: MST Kd ratio
# T1 sequence (Q13507 1-921): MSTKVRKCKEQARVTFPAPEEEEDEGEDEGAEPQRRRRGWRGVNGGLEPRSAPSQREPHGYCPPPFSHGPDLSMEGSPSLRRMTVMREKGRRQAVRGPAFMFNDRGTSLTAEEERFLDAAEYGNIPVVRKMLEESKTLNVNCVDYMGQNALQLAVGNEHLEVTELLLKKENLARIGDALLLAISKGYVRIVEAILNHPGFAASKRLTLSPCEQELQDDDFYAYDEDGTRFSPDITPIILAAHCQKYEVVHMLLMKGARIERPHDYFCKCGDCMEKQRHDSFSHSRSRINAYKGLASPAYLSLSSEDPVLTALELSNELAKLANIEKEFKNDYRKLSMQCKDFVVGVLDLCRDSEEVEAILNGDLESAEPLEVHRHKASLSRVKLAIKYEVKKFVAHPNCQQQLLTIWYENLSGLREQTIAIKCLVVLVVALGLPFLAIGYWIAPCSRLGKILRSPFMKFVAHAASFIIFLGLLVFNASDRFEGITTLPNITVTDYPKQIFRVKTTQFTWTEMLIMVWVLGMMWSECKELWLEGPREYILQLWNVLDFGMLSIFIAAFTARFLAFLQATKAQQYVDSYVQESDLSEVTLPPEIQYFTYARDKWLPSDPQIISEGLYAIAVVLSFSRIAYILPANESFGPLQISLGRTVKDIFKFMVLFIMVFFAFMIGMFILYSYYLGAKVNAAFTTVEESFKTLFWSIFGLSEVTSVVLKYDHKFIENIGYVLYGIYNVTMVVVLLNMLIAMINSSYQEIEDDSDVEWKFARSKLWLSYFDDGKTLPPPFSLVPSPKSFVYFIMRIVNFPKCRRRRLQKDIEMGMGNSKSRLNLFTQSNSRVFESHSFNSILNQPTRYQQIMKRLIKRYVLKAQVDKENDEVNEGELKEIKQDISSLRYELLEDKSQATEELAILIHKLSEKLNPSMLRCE
# Method: as §1, §2, §3, §4, §5
# TRPC1 protein, sequence (P48995 whole entry, species assumed): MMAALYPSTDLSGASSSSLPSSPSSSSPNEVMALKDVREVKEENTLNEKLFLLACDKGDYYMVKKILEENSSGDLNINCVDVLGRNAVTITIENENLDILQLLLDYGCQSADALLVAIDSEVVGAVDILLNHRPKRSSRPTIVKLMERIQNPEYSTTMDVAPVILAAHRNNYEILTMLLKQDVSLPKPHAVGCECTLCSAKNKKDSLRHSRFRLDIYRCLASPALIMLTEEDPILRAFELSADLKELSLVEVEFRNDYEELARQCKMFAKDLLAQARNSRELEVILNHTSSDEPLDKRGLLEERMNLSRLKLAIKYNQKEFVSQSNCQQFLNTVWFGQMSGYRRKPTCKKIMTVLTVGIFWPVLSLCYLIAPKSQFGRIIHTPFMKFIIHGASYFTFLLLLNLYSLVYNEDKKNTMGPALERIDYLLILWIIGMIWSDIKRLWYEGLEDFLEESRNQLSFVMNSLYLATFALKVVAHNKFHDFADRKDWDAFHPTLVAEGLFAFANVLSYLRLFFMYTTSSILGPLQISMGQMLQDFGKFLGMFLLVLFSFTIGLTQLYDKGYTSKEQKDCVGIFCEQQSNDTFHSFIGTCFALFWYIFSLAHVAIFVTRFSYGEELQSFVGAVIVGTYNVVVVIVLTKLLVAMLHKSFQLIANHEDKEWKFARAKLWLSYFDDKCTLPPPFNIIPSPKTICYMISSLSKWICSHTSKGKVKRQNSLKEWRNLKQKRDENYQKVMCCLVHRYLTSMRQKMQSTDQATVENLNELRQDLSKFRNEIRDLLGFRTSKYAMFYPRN
SMILES,pKd (TRPC1 protein),affinity strength to TRPC6 protein higher than to TRPC1 protein (TRPC1 protein) [fold],average survival time ([1]; 25 mg/kg) [h],affinity strength to TRPC6 protein higher than to TRPC3 protein (TRPC3 protein) [fold],time after which the mice began to die ([1]; 25 mg/kg) [h],time after which the mice began to die ([1]; 50 mg/kg) [h],average survival time ([1]; 50 mg/kg) [h],pKd (TRPC3 protein; MST)
"Cn1c(C(=O)NCCC(=O)O)cc2ccccc21 [3-[(1-methyl-1H-indole-2-carbonyl)amino]propionic acid, reference compound]",5.71,65,19.8 ± 3.1,27,,,,
"CC(=O)OCCCNC(=O)c1c(C=O)c2ccccc2n1C [compound 1-1, propyl 3-[(3-formyl-1-methyl-1H-indole-2-carbonyl)amino]acetate]",5.53,245,24.8 ± 3.9,81,20,28,26.4 ± 4.3,
Cn1c(C(=O)NCCCOC(=O)c2ccccc2)c(C=O)c2ccccc21 [compound 2-1],5.62,155,,51,,22,24.2 ± 4.9,5.85
